# Where “and” joins values, the source holds several entries; their conditions need not be identical. Identical values can stand only once. Like-named read-outs stand apart in the source and are kept apart here.
# B1: Tar-LBD (ligand-binding domain of the aspartate chemoreceptor Tar of E. coli) (domain or fragment, E. coli K12, UniProt P07017 31-188, looked up)
# chain: SSLHHSQKSFVVSNQLREQQGELTSTWDLMLQTRINLSRSAVRMMMDSSNQQSNAKVELLDSARKTLAQAATHYKKFKSMAPLPEMVATSRNIDEKYKNYYTALTELIDYLDYGNTGAYFAQPTQGMQNAMGEAFAQYALSSEKLYRDIVTDNADDYR
# notes: Cloned into the NdeI and BamHI sites of pET28b(+) and purified on a HisTrap column; In solution it is a rapidly interchanging mixture of monomer and dimer; also called E. coli Tar-LBD; LBD of the Tar chemoreceptor; source: E. coli BL21(DE3), purified (HisTrap)
# Experiments:
# [1] = biological target: T1, McpH-LBD (Pseudomonas putida, UniProt Q88R14); assay: ITC titration of McpH-LBD with adenine at different pH; type: binding, P. putida KT2440; details: 25°C
# T1 construct: pET28b(+) derivative containing a DNA fragment encoding the McpH-LBD; made in house
# T1 sequence (Q88R14 51-276): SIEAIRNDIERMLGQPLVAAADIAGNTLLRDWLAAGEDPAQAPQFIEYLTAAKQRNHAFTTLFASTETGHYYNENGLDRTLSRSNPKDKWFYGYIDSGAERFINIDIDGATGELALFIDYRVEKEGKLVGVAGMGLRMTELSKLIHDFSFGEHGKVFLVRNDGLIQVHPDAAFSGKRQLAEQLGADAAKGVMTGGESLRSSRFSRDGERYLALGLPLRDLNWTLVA
# [2] = biological target: T2, TtgV (Pseudomonas putida, UniProt Q93PU6); assay: ITC titration of TtgV with benzonitrile at different pH; type: binding, P. putida DOT-T1E; details: 25°C
# T2 construct: made in house
# T2 sequence (Q93PU6 whole entry): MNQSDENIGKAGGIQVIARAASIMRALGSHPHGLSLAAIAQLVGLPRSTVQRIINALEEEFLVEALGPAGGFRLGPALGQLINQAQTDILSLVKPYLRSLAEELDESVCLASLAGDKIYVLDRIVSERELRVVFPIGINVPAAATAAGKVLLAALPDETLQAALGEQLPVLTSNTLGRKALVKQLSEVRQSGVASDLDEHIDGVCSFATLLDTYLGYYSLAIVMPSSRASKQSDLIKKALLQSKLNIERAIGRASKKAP
# [3] = biological target: T3, McpQ-LBD (Pseudomonas putida, UniProt Q88D09); assay: ITC titration of McpQ-LBD with citrate at different pH; type: binding, P. putida KT2440; details: 25°C
# T3 construct: pET28b(+) derivative containing a DNA fragment encoding the McpQ-LBD; made in house
# T3 sequence (Q88D09 45-282): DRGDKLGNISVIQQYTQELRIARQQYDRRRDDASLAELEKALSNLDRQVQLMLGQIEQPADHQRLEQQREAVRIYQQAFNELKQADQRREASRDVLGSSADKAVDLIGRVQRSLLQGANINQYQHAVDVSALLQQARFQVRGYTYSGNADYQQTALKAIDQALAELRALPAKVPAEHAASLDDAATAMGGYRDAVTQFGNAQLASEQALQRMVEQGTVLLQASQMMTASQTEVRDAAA
# [4] = biological target: T4, MBP (Escherichia coli, UniProt P0AEX9); assay: ITC titration of maltose-binding protein (MBP) with D-maltose at different pH; design: species or system E. coli K12
# T4 construct: His tag (from pET28b(+)) (N); made in house; host or cells: Escherichia coli BL21(DE3)
# [5] = biological target: AdmX-LBD (Serratia plymuthica, UniProt P0DV33); assay: ITC titration of AdmX-LBD with indole-3-pyruvic acid at different pH; type: binding, Serratia plymuthica A153
# AdmX-LBD, sequence (P0DV33 91-304): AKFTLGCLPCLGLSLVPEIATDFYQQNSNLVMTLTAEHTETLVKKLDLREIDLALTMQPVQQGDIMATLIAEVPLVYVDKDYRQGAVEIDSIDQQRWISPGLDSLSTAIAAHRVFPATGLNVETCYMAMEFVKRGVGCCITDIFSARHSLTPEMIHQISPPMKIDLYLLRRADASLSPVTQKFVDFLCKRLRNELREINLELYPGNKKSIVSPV
# [6] = tested on: P. aeruginosa PAO1; assay: Quantitative capillary chemotaxis assay at different pH; type: cell-based; details: 1 mM ligand
# Protocol: We evaluated the effect of pH on P. aeruginosa chemotaxis to L-Ala, a ligand of the PctA chemoreceptor, using the quantitative capillary chemotaxis assay. Prior to performing these assays, we evaluated cell viability and motility at different pH values. We grew cells in minimal medium to an OD660 of 0.4, washed twice with chemotaxis buffer at the different pH values, resuspended in the corresponding buffer, and incubated for 1 h. Cells were then plated out to assess cell viability. […] We then determined the effect of different pH on the chemotactic responses to L-Ala.
# Chemotaxis assays were performed as previously described ([79]) with some modifications. When cultures reached an OD660 of 0.4, the cells were gently washed twice with chemotaxis buffer at different pH and then resuspended in fresh buffer. The chemoeffector solutions were prepared in the corresponding chemotaxis buffer. Data are the means and standard deviations of at least 3 biological replicates conducted in triplicate.
# [7] = biological target: T5, PctA-LBD (Pseudomonas aeruginosa, UniProt G3XD24); assay: ITC titration of PctA-LBD with L-alanine at different pH; type: binding, P. aeruginosa PAO1
# T5 construct: pET28b(+) derivative containing a DNA fragment encoding the PctA-LBD; made in house
# T5 sequence (G3XD24 32-276): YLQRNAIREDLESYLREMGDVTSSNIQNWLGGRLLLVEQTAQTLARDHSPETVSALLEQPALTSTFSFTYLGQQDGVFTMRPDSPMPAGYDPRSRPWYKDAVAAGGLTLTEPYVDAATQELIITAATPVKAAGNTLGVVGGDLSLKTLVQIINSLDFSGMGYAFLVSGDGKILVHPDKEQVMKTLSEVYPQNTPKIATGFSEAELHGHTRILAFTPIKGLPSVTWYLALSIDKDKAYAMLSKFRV
# [8] = biological target: T6, Tar-LBD (Escherichia coli, UniProt P07017); assay: Sedimentation-velocity analytical ultracentrifugation of Tar-LBD with and without L-Asp; design: species or system E. coli K12; details: 1 mM ligand; all pH values analysed (3.5, 5.0, 7.0, 10.0)
# T6 construct: A DNA fragment encoding the Tar-LBD (amino acids 31 to 188) was amplified from genomic DNA of E. coli K12; His tag (from pET28b(+)) (N); made in house; host or cells: Escherichia coli BL21(DE3)
# Protocol: To estimate the sedimentation coefficient expected for the monomeric and dimeric states of the Tar-LBD, a hydrodynamic model was generated from the 3D structure of the protein (pdb ID 4Z9H) ([45]). Using the HYDROPRO software, the theoretical sedimentation coefficients were s(20,w) = 2.12 S for the monomer and 3.54 S for the dimer (Fig. 5A).
# Experiments were conducted on a ProteomeLab XL-I instrument (Beckman-Coulter) equipped with interference and absorbance optics. Sedimentation was carried out at 42,000 rpm and 10°C in an eight-hole Ti-50 Beckman Coulter rotor and monitored with absorbance optics at 280 nm in continuous mode. Samples were dialyzed into 4 different buffers, namely, 10 mM citric acid/sodium citrate, pH 3.5; 10 mM citric acid/sodium citrate, pH 5.0; 3 mM Tris, 3 mM PIPES, 3 mM MES, pH 7.0, and 10 mM Na2CO3/NaHCO3, pH 10.0. […] Density and viscosity of the buffer were calculated with [sequence] […] To assign the sedimentation coefficient observed to the corresponding oligomeric species, theoretical s values were calculated via HYDROPRO ([92]) hydrodynamic modeling software, applied to the 3D structure of the Tar-LBD monomer and dimer (pdb ID 4H9Z), with a 2.9 Å radius for the primary elements.
# [9] = biological target: T7, Tar (Escherichia coli, UniProt P07017); assay: FRET (CheY-YFP/CheZ-CFP) chemotaxis pathway response, Tar as sole chemoreceptor; type: cell-based; details: E. coli VS181 with Tar as sole chemoreceptor, read-out: EC50 (half-maximal effective concentration), FRET titration
# T7 construct: expressed in transfected cells; host or cells: receptorless E. coli VS181, plasmid pSB13 (pKG116 derivative)
# T7 sequence (P07017 whole entry): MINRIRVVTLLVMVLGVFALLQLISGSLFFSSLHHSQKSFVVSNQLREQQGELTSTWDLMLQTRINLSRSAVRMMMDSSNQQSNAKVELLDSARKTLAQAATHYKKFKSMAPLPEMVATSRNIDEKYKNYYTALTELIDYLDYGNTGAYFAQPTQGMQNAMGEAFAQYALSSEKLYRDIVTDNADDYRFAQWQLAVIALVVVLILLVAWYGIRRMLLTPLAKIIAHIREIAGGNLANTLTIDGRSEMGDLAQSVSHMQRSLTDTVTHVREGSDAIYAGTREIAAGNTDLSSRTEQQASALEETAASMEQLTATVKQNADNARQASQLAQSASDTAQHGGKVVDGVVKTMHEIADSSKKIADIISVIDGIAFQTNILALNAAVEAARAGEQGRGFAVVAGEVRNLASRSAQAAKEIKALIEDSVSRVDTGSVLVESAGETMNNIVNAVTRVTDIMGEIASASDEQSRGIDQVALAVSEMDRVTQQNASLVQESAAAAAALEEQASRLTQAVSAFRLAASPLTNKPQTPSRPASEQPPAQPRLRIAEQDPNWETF
# [10] = biological target: T6, Tar-LBD; assay: Differential scanning calorimetry of Tar-LBD thermal unfolding in presence of L-Asp; design: species or system E. coli K12; details: 1 mM L-Asp
# Protocol: Differential scanning calorimetry (DSC) provides information on the thermodynamics of protein unfolding. At 5.0, the optimal pH for binding and dimerization, Tar-LBD formed a sharp peak with or without 1 mM L-Asp (Fig. 5B and C, and Table S3), indicative of highly cooperative unfolding. […] We thus conclude that at all pH values tested, at least some of the protein was present in the dimeric form and capable of binding ligand.
# Experiments were conducted on a MicroCal DSC-PEAQ system (Malvern Panalytical) at a scan rate of 90°C/h over a temperature range of 10°C to 85°C. Calorimetric cells (operating volume 0.134 mL) were kept under pressure (60 lb/in^2) to prevent sample degassing. Buffer-buffer baselines obtained after each assay were subtracted from the signal obtained from each of the samples. Protein samples were prepared as detailed in the “Analytical ultracentrifugation” section. The calorimetric enthalpies were estimated by integration of the transition peaks after subtracting the buffer-buffer baselines and fitting the curves to a “Non-two-state” model using MicroCal DSC-PEAQ software. For graphical clarity of the plots, baselines were manually curated and raw data were smoothed with the Savitzky-Golay algorithm.
# [11] = biological target: T6, Tar-LBD; assay: ITC titration of Tar-LBD with L-aspartate at different pH; type: binding, E. coli K12; details: for pH range of binding: defined as binding with a KD below 1 mM
# [12] = biological target: T8, McpS-LBD (Pseudomonas putida, UniProt Q88E10); assay: ITC titration of McpS-LBD with L-malate at different pH; type: binding, P. putida KT2440; details: 25°C
# T8 construct: pET28b(+) derivative containing a DNA fragment encoding the McpS-LBD; made in house
# T8 sequence (Q88E10 41-283): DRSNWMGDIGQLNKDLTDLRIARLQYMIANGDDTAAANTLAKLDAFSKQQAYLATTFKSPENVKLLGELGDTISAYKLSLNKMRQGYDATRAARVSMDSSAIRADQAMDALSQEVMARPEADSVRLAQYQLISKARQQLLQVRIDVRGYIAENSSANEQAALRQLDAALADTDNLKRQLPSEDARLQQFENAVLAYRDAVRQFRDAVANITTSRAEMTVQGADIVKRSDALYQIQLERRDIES
# [13] = biological target: T9, CtpM-LBD (Pseudomonas aeruginosa, UniProt Q9I0I6); assay: ITC titration of CtpM-LBD with L-malate at different pH; type: binding, P. aeruginosa PAO1
# T9 construct: containing a DNA fragment encoding the CtpM (PA2652)-LBD; made in house
# T9 sequence (Q9I0I6 33-205): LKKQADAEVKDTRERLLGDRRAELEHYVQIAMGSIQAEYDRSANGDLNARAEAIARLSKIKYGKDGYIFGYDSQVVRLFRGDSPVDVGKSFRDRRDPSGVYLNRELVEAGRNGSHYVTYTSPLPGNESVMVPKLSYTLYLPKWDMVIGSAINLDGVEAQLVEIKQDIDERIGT
# [14] = biological target: T10, McpS-Tar (UniProt P07017+Q88E10); assay: FRET (CheY-YFP/CheZ-CFP) chemotaxis pathway response, McpS-Tar hybrid as sole chemoreceptor; type: cell-based; details: E. coli VS181 with McpS-Tar as sole chemoreceptor, read-out: EC50 (half-maximal effective concentration), FRET titration
# T10 construct: 295]-Tar[200-553] receptor; expressed in transfected cells; host or cells: receptorless E. coli VS181, plasmid pSB10 (pKG116 derivative)
# T10 sequence (Q88E10+P07017 fused): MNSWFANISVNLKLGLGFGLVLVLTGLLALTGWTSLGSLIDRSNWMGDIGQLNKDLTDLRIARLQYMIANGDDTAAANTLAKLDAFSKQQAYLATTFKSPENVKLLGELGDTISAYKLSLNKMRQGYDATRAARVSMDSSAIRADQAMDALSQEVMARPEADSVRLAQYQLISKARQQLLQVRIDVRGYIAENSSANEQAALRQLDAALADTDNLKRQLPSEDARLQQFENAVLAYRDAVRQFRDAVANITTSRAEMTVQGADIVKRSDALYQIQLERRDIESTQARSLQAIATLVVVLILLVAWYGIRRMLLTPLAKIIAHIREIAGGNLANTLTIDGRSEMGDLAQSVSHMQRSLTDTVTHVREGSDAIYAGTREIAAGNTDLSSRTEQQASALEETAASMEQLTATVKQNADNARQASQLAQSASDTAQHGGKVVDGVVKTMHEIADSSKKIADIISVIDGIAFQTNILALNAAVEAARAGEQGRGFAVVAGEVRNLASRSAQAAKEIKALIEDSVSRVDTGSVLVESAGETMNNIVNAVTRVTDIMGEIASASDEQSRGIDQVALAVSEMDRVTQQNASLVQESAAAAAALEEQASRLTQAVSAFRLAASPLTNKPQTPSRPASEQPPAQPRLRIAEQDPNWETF
# [15] = biological target: McpV-LBD (Sinorhizobium meliloti, UniProt Q7APD1); assay: ITC titration of McpV-LBD with propionate at different pH; type: binding, Sinorhizobium meliloti RU11/001
# McpV-LBD, sequence (Q7APD1 entry or part of it): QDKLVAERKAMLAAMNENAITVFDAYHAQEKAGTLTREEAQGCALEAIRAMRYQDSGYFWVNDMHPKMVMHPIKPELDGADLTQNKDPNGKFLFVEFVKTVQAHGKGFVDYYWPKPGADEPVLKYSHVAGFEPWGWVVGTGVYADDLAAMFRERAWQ
# [16] = biological target: McpU-LBD (Pseudomonas putida, UniProt Q88NI1); assay: biochemical
# McpU-LBD, sequence (Q88NI1 50-284): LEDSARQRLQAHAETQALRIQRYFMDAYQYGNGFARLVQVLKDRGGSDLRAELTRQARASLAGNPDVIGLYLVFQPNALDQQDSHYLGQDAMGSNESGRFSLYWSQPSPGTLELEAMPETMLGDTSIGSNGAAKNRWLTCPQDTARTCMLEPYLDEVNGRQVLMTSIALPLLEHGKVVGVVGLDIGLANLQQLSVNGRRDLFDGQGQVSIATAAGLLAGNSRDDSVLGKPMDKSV
# Protocol: (§1) To assess the pH dependence of ligand-binding, freshly purified proteins were dialyzed overnight into the buffers described in Table S1 and submitted to microcalorimetric titration.
# (§2) Freshly purified proteins were dialyzed into the buffers specified in Table S1 and introduced into the sample cell of an VP-microcalorimeter (MicroCal). Proteins at 15 to 100 μM were titrated with 0.25 to 10 mM ligand solutions that were made up in dialysis buffer. For pH-active ligands, the pH of the ligand solutions was adjusted to that of the dialysis buffer by the addition of concentrated HCl or NaOH. Titrations of MBP and McpV-LBD were conducted at 15°C to favor endothermic contributions to binding heats, whereas the remaining titrations were carried out at 25°C. Raw titration data were integrated, corrected for ligand-dilution heats and normalized with the ligand concentrations. Resulting data were fitted with the “One Binding site model” of the MicroCal version of ORIGIN. Provided are the dissociation constants derived from one experiment and the error of curve-fitting.
# [17] = biological target: T11, PcaY_PP-LBD (Pseudomonas putida, UniProt Q88JK6); assay: ITC titration of PcaY_PP-LBD with quinate at different pH; type: binding, P. putida KT2440
# T11 construct: made in house
# T11 sequence (Q88JK6 44-196): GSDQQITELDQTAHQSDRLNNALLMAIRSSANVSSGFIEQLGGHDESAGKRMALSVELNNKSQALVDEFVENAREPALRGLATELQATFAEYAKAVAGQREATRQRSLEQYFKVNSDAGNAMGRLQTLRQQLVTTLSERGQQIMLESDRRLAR
# Protocol: as §1, §2
# [18] = biological target: TodS-Nter (Pseudomonas putida, UniProt E0X9C7); assay: biochemical
# TodS-Nter, sequence (E0X9C7 1-584): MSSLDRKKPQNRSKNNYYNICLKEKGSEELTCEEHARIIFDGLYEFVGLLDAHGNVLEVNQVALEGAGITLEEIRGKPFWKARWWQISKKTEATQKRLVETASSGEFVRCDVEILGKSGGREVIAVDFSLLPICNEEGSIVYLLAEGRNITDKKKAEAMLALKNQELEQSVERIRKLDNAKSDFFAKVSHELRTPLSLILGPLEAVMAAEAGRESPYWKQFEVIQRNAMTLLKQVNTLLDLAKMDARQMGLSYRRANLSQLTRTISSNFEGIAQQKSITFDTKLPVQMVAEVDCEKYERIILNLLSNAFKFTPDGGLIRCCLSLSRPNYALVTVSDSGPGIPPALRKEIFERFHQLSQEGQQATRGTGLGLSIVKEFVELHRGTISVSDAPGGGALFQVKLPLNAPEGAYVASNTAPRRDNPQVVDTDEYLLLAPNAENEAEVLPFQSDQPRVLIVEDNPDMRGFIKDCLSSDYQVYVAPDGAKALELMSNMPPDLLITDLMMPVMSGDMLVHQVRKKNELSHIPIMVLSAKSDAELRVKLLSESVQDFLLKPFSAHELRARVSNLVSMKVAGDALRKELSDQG
# Protocol: as §1, §2
# [19] = biological target: the molecule itself; assay: AUC; sedimentation velocity with 1 mM L-Asp, 35 uM protein, pH 3.5, 5.0, 7.0 and 10.0, 10°C, 42,000 rpm; monomer to dimer
# [20] = defined as binding with a KD below 1 mM
# [21] = pH 6.0, read-out: KD at pH optimum
# [22] = 15°C, defined as binding with a KD below 1 mM
# [23] = ITC, 25°C, defined as binding with a KD below 1 mM
# [24] = 25°C, defined as binding with a KD below 1 mM
molecule,measurement,setting,value
Nc1ncnc2[nH]cnc12 [Adenine],pH optimum,[1],5.0
same,pH range of binding,[1]; [20],3.5-10.0
same,Kd,"[1]; pH 5.0, read-out: KD at pH optimum",1680 nM
N#Cc1ccccc1 [Benzonitrile],pH optimum,[2],6.0
same,pH range of binding,[2]; [20],5.0-9.0
same,Kd,[2]; [21],67600 nM
O=C(O)CC(O)(CC(=O)O)C(=O)O [Citrate],pH optimum,[3],6.0
same,Kd,[3]; [21],153000 nM
OC[C@H]1O[C@H](O[C@H]2[C@H](O)[C@@H](O)[C@H](O)O[C@@H]2CO)[C@H](O)[C@@H](O)[C@@H]1O [D-maltose],width of pH range of ligand recognition,[4],8.5 pH units
same,pH optimum,[4]; 15°C,9.0
same,pH range of binding,[4]; [22],2.5-11.0
O=C(O)C(=O)Cc1c[nH]c2ccccc12 [Indole-3-pyruvic acid],Kd,[5],12700 nM
same,pH optimum,"[5]; ITC, 25°C",8.0
same,pH range of binding,[5]; [23],7.5-8.0
C[C@H](N)C(=O)O [L-alanine],pH of optimal chemotactic responses,[6],7.0
same,pH optimum,[7]; 25°C,5.5
same,pH range of binding,[7]; [24],3.0-11.5
same,Kd,"[7]; average over the pH range 3.0 to 11.0, read-out: average dissociation constant (KD)",1260 ± 700 nM
same,Kd,"[7]; pH 3.0, read-out: dissociation constant (KD)",1300 nM
same,width of pH range of high-affinity binding,[7]; pH 3.0 to 11.5,8.5 pH units
same,Kd,"[7]; pH 9.0, read-out: dissociation constant (KD)",910 nM
same,Kd,"[7]; pH 11.0, read-out: dissociation constant (KD)",3900 nM
N[C@@H](CC(=O)O)C(=O)O [L-aspartate],effect on Tar-LBD monomer-dimer equilibrium,[8],shifted the equilibrium almost completely to the dimeric species
same,EC50,[9]; pH 5.5,166 ± 20 nM
same,EC50,[9]; pH 7.0,202 ± 20 nM
same,EC50,[9]; pH 8.5,77 ± 10 nM
same,EC50,[9]; pH 9.5,141 ± 20 nM
same,Tm of Tar-LBD thermal unfolding,"[10]; pH 3.5, two transitions",44.28 ºC and 64.51 ºC
same,Tm of Tar-LBD thermal unfolding,[10]; pH 5.0,47.73 ºC
same,ΔH of Tar-LBD thermal unfolding,[10]; pH 5.0,106.4 kcal/mol
same,Tm of Tar-LBD thermal unfolding,"[10]; pH 7.0, two transitions",36.48 ºC and 42.20 ºC
same,Tm of Tar-LBD thermal unfolding,[10]; pH 10.0,35.11 ºC
same,ΔH of Tar-LBD thermal unfolding,[10]; pH 10.0,98.6 kcal/mol
same,pH optimum,[11]; 25°C,5.0
same,pH range of binding,[11]; 25°C,3.0-10.5
same,pH range of binding,"[11]; 25°C, listed as L-Asp",≤ 10.5
same,Kd,"[11]; 25°C, pH 5.0, read-out: KD at pH optimum",400 nM
same,width of pH range of high-affinity binding,[11]; pH 3.0 to 10.5,7.5 pH units
O=C(O)C[C@H](O)C(=O)O [L-malate],pH optimum,[12],5.5
same,pH range of binding,[12]; [20],3.0-10.0
same,Kd,"[12]; pH 5.5, read-out: KD at pH optimum",4000 nM
same,width of pH range of high-affinity binding,[13],4.5 pH units
same,pH optimum,[13]; 25°C,6.5
same,pH range of binding,[13]; [24],4.5-9.0
same,Kd,"[13]; 25°C, pH 6.5, read-out: KD at pH optimum",38700 nM
same,EC50,[14]; pH 5.5,9380 ± 1900 nM
same,EC50,[14]; pH 7.0,2180 ± 410 nM
same,EC50,[14]; pH 8.5,7660 ± 1900 nM
CCC(=O)O [Propionate],width of pH range of high-affinity binding,[15],6.5 pH units
same,pH optimum,[15]; 15°C,7.0
same,pH range of binding,[15]; [22],5.0-11.5
same,Kd,"[15]; 15°C, pH 7.0, read-out: KD at pH optimum",33100 nM
NCCCCN [Putrescine],Kd,[16],700 nM
same,pH optimum,"[16]; ITC, 25°C",8.5
same,pH range of binding,[16]; [23],4.5-11.5
O=C(O)[C@]1(O)C[C@@H](O)[C@@H](O)[C@H](O)C1 [Quinate],Kd,[17],1220 nM
same,pH optimum,"[17]; ITC, 25°C",5.0
same,pH range of binding,[17]; [23],3.5-11.5
same,width of pH profile of binding,"[17]; ITC, pH 3.5-11.5",8 pH units
Cc1ccccc1 [Toluene],Kd,[18],250 nM
same,width of pH range of ligand recognition,[18]; ITC,4 pH units
same,pH optimum,"[18]; ITC, 25°C",6.5
same,pH range of binding,[18]; [23],5.5-9.5
B1,stoichiometry N,[19],2

# — PMC9600550, “The pH Robustness of Bacterial Sensing” (mBio, 2022)
